From US20220273659A1, “HETEROCYCLIC COMPOUNDS AS KINASE INHIBITORS” (NUVATION BIO INC., priority 2019, published 2022)
Like-named read-outs stand apart in the source and are kept apart here.

What was measured:
PI3Kδ kinase = molecular target: T1, PI3Kδ kinase (Homo sapiens, UniProt O00329); experiment: PI3Kδ kinase assay (ADP-Glo, Reaction Biology); assay type: biochemical
T1 construct: purchased Reaction Biology Corporation (assay service)
In short: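 Kinase in Tris-HCl 40 mM pH 7.5, MgCl2 20 mM, orthovanadate 3 mM, DTT 2 mM, 0.05% CHAPS, 1% DMSO, preincubated 10 min at room temperature with compound (about 0.5 nM–100 μM). ATP started a 30-min reaction at 30 °C. ADP-Glo luminescence converted to μM ADP via standard curve; IC50 from nonlinear regression.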

[1] = tested on: MCF-7 breast adenocarcinoma cells; experiment: Cancer cell proliferation assay, single agent (cell viability); assay type: cell-based; conditions: Homo sapiens
In short: (§1)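 Viability read by resazurin or CellTiter-Glo after 24 h treatment (BT-549) or 144 h with a 72 h medium change (MCF-7, DU4475). Compounds tested at 7–9 concentrations, e.g. 1.1 nM–10 μM, added the day after seeding; IC50 by nonlinear sigmoidal regression.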

[2] = tested on: DU4475 breast carcinoma cells; experiment: as above; assay type: cell-based; conditions: Homo sapiens, DU-4475; Table 4; Rb negative; treatment 144 Hr with medium change at 72 Hr; Cell Titer-Glo or resazurin
In short: as §1

CDK1 (cyclin B) = molecular target: T2, CDK1 (cyclin B) (Homo sapiens, UniProt P06493); experiment: Z'-LYTE kinase assay; assay type: biochemical
T2 construct: purchased Invitrogen Life Technologies (assay service)
T2 sequence (P06493 whole entry): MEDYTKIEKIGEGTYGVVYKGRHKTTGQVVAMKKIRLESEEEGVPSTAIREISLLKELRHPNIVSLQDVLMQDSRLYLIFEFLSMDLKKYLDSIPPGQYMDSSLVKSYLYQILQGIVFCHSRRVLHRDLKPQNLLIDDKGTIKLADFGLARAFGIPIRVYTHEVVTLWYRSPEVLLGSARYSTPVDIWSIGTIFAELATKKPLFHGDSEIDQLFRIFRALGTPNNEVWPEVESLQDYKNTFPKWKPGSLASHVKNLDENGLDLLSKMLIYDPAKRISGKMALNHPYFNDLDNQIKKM
T2 sequence (P14635 whole entry partner): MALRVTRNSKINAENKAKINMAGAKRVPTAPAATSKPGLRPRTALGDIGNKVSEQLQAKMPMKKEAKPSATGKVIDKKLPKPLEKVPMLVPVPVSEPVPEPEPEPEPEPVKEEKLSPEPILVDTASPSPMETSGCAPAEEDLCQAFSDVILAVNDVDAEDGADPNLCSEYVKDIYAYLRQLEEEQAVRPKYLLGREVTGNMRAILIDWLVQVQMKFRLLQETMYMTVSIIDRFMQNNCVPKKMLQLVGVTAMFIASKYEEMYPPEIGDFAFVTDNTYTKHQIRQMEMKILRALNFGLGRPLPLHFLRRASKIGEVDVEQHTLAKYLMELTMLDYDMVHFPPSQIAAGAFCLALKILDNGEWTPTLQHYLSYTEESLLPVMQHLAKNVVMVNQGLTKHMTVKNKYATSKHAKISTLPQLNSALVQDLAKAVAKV
Method: The plates were shaken for 30 seconds, and incubated for 60 minutes at room temperature. […] The plates were read on fluorescence plate reader with Dual emission at 445 nm and 520 nm.
The following equations were used for Z′-LYTE™ Screening Assay Data Analysis.

CDK6 = molecular target: T3, CDK6 (Homo sapiens, UniProt Q00534); experiment: In vitro kinase inhibition IC50, luminescence (ADP Glo), retinoblastoma substrate; assay type: biochemical; conditions: read-out: CDK6/D1 IC50
T3 construct: purchased Invitrogen PR8422B
T3 sequence (Q00534 whole entry): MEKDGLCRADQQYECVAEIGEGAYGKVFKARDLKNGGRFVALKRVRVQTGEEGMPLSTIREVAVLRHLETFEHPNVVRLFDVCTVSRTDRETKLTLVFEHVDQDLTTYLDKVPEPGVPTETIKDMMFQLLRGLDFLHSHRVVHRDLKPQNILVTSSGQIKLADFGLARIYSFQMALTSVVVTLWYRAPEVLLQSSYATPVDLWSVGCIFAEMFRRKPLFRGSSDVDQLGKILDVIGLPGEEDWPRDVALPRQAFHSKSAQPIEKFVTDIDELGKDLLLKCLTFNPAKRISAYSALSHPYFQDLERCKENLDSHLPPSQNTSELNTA
T3 sequence (P24385 whole entry partner): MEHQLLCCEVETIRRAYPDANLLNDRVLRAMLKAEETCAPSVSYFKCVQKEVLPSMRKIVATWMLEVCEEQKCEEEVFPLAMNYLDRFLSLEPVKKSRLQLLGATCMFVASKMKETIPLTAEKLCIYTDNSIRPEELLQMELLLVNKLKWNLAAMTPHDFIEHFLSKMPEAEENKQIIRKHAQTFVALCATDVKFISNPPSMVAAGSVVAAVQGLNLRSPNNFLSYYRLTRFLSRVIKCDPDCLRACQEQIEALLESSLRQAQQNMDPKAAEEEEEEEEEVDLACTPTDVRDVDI
In short: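 IC50 derived by four-parameter logistic fit of percent inhibition, read as ADP-Glo luminescence. Reactions: 5 nM CDK6, 1 μM retinoblastoma, 25 μM ATP, test compound 0.1–200 nM final, 2 h at room temperature.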

CDK4 = molecular target: T4, CDK4 (Homo sapiens, UniProt P11802); experiment: as above; assay type: biochemical; conditions: read-out: CDK4/D1 IC50
T4 construct: purchased Invitrogen PR8064A
T4 sequence (P11802 whole entry): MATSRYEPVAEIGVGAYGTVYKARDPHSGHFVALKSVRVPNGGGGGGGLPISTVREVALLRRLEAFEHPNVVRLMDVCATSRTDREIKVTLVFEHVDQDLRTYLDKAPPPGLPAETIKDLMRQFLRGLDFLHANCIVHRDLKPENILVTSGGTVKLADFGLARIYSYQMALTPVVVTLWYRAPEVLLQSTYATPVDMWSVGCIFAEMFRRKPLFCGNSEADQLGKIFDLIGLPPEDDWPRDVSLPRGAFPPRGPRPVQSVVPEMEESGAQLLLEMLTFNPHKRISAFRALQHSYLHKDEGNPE
T4 sequence (P24385 whole entry partner): as the sequence (P24385 whole entry partner) above
In short: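 Inhibition of CDK4 was quantified by ADP Glo luminescence with retinoblastoma as substrate. Reactions held 5 nM kinase, 1 μM retinoblastoma and 25 μM ATP and ran 2H at room temperature. A Synergy Neo reader took signals 15 min and 45 min after detection reagent, and percent inhibition was fitted to a four-parameter logistic model in XLfit to obtain IC50.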

[3] = tested on: MCF-7-PR (palbociclib-resistant MCF-7) cells; experiment: Cell viability in palbociclib-resistant cell line; assay type: cell-based; conditions: Homo sapiens, MCF7; Table 5; palbociclib-resistant cell line maintained at about 850 nM palbociclib
Method: Cells were treated with test compounds at 7 to 9 concentrations within a desired concentration range (e.g. 1.1 nM-10 μM) on day 2 by series diluting the test compound stock solution (10 mM in DMSO) with culture medium. Treatment duration was 24 Hr for BT-549 cells and 144 Hr (with a medium change at 72 Hr) for MCF-7 and DU4475 cells. Cell viability was assessed by Cell Titer-Glo® as recommended by Promega (Cat. No.: G7572), or by resazurin assay (Sigma Aldrich, Cat. No.: R7017) post treatment.
Cell viability data were plotted using GraphPad Prism (GraphPad Software, Inc., San Diego, Calif.). In addition, a nonlinear regression model with a sigmoidal dose response and variable slope within GraphPad Prism was used to calculate the IC50 value of individual test compounds.
The effects of test compounds in a palbociclib-resistant cell line and a parental, non-resistant cell line were compared. The palbociclib-resistant cell line (“MCF-7-PR”) was derived from the parental, non-resistant cell line (MCF-7 breast adenocarcinoma cells) by culture of cells over a period of three months in increasing concentrations of palbociclib, starting from about 350 nM and ending at about 850 nM, the final concentration at which they were then maintained in culture. The MCF-7-PR cells were checked using a cell viability assay to confirm that they had at least 5-fold resistance to palbociclib compared to parental MCF-7 cells, as measured by an increase in the cell viability IC50 values. Assessment of cell viability following treatment with palbociclib or test compounds was performed according to the method described above for MCF-7 cells.

[4] = MCF7, Table 4, Rb positive, treatment 144 Hr with medium change at 72 Hr, Cell Titer-Glo or resazurin
[5] = MCF7, Table 5, parental, non-resistant cell line compared with MCF-7-PR

T1 sequence (O00329 whole entry): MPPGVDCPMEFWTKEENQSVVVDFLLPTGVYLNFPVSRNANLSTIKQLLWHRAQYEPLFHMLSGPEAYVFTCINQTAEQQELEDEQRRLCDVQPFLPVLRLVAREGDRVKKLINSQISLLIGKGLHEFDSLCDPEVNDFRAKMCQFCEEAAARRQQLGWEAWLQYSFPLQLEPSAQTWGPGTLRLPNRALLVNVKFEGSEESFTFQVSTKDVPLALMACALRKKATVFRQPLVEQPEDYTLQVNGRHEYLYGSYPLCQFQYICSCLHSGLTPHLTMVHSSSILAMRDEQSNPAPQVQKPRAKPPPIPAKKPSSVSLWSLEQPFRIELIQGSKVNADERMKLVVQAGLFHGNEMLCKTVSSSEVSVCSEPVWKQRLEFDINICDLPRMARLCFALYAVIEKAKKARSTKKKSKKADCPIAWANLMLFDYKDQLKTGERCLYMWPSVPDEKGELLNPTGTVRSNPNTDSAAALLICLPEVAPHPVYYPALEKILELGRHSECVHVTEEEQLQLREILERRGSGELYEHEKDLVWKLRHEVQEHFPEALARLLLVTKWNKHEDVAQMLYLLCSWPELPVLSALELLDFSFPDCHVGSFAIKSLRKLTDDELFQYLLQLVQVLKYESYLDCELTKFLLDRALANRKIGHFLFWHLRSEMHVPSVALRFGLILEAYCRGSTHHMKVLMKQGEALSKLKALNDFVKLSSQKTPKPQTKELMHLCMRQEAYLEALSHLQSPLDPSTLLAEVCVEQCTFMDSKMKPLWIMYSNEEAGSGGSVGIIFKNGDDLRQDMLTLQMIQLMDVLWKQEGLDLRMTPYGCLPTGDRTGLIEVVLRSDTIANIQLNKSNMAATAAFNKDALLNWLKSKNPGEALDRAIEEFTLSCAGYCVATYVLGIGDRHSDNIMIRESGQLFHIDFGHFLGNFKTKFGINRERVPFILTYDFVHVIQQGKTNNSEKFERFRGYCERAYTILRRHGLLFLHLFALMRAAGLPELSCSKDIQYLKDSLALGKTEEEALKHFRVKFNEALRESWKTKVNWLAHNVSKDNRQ
T1 sequence (P27986 whole entry partner): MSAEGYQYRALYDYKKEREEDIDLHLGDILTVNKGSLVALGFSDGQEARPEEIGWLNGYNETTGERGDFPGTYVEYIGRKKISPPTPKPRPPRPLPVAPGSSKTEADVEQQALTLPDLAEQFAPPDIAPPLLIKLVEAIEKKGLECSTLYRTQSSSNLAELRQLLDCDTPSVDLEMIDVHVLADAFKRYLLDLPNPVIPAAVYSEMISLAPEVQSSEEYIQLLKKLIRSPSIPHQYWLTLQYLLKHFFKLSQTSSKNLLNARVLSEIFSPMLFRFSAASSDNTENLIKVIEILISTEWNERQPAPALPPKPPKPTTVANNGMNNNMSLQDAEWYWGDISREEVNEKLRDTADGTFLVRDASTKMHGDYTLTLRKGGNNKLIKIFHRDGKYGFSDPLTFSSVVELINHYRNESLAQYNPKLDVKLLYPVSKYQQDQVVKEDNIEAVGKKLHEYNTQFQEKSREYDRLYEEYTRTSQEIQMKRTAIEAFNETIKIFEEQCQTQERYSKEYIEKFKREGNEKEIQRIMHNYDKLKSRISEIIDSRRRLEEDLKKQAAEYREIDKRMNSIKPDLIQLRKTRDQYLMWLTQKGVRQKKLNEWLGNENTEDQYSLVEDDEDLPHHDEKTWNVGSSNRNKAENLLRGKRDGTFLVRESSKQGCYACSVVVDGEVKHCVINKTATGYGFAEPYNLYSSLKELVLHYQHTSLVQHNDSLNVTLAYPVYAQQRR

SMILES	IC50 (PI3Kδ kinase)	IC50 [1, 4]	IC50 [2]	IC50 (CDK1 (cyclin B))	IC50 (CDK6)	IC50 (CDK4)	IC50 [3]	IC50 (CDK1 (cyclin B); read-out: CDK1/B IC50)	IC50 [1, 5]
N#Cc1cc2cnc(Nc3ccc(N4CCNCC4)c(F)c3)nc2n(C2CCCC2)c1=O [Compound No. 13, 8-cyclopentyl-2-((3-fluoro-4-(piperazin-1-yl)phenyl)amino)-7-oxo-7,8-dihydropyrido[2,3-d]pyrimidine-6-carbonitrile]	561 nM	158 nM	–	–	1.5 nM	3.5 nM	481 nM	–	119 nM
N#Cc1cc2cnc(Nc3ccc4c(c3)CNCC4)nc2n(C2CCCC2)c1=O [Compound No. 29, 8-cyclopentyl-7-oxo-2-((1,2,3,4-tetrahydroisoquinolin-7-yl)amino)-7,8-dihydropyrido[2,3-d]pyrimidine-6-carbonitrile]	552 nM	240 nM	1280 nM	–	13 nM	7 nM	–	441 nM	–
CS(=O)(=O)N1CCC(Nc2ncc3cc(C#N)c(=O)n(C4CCCC4)c3n2)CC1 [Compound No. 93, 8-cyclopentyl-2-((1-(methylsulfonyl)piperidin-4-yl)amino)-7-oxo-7,8-dihydropyrido[2,3-d]pyrimidine-6-carbonitrile]	12100 nM	2000 nM	793 nM	53 nM	4 nM	2.6 nM	911 nM	–	558 nM
CS(=O)(=O)N1CCC(Nc2ncc3cc(C#N)c(=O)n(C4CC5CC5C4)c3n2)CC1 (stereo not shown) [Compound No. 341, 8-(bicyclo[3.1.0]hexan-3-yl)-2-((1-(methylsulfonyl)piperidin-4-yl)amino)-7-oxo-7,8-dihydropyrido[2,3-d]pyrimidine-6-carbonitrile]	> 50000 nM	835 nM	940 nM	–	8.5 nM	3.5 nM	690 nM	197 nM	487 nM

Second part, led by results:

IC50 (PI3Kδ kinase)	IC50 [1, 4]	IC50 [2]	IC50 (CDK1 (cyclin B))	IC50 (CDK6)	IC50 (CDK4)	IC50 [3]	IC50 (CDK1 (cyclin B); read-out: CDK1/B IC50)	SMILES	IC50 [1, 5]
> 50000 nM	3140 nM	3690 nM	1110 nM	55 nM	40 nM	6230 nM	–	CS(=O)(=O)N1CCC(Nc2ncc3cc(C#N)c(=O)n(C4CCC(F)(F)C4)c3n2)CC1 (racemic) [Compound No. 345, 8-(3,3-difluorocyclopentyl)-2-((1-(methylsulfonyl)piperidin-4-yl)amino)-7-oxo-7,8-dihydropyrido[2,3-d]pyrimidine-6-carbonitrile]	3970 nM
128 nM	130 nM	525 nM	–	9 nM	5 nM	248 nM	481 nM	N#Cc1cc2cnc(Nc3ccc4c(c3)CCNC4)nc2n(C2CCCC2)c1=O [Compound No. 31, 8-cyclopentyl-7-oxo-2-((1,2,3,4-tetrahydroisoquinolin-6-yl)amino)-7,8-dihydropyrido[2,3-d]pyrimidine-6-carbonitrile]	157 nM
421 nM	415 nM	485 nM	–	22 nM	10 nM	361 nM	439 nM	N#Cc1cc2cnc(Nc3ccc4c(c3)CCNC4)nc2n(C2CC3CC3C2)c1=O (stereo not shown) [Compound No. 342, 8-(bicyclo[3.1.0]hexan-3-yl)-7-oxo-2-((1,2,3,4-tetrahydroisoquinolin-6-yl)amino)-7,8-dihydropyrido[2,3-d]pyrimidine-6-carbonitrile]	192 nM
